Where two headings read alike, the source gives them in different places.
Tests used:
[1] = test system: MDA-MB468; test: SRB antiproliferative assay, MDA-MB468; format: cell-based, human; settings: Homo sapiens, MDA-MB-468, 48 h
Method: (§1) Antiproliferative effects were determined by a sulforhodamine B (SRB) based protocol. For a typical screening experiment, 5,000-10,000 cells were inoculated into 100 μl medium per well of a 96-well microtiter plate as described previously. […] Some of the sample wells were fixed with 25 μl of 50% trichloroacetic acid (TCA) as a control of the cell population for each cell line at the time of drug addition (Tz). An aliquot of the frozen stock was thawed and diluted to the desired final maximum test-concentration with complete medium. Two to ten-fold serial dilutions were made to provide a total of seven drug concentrations (and a control [C]). Following addition of drugs, the culture plate was incubated for additional 48 h. Cells were fixed in situ by slowly adding 25 μl of ice-cold 50% (w/v) TCA (final concentration, 10% TCA), and were then incubated for 60 min at 4° C. The supernatant was discarded, and the plate was washed five times with tap water, followed by air-dry. 50 μl of SRB solution at 0.4% (w/v) in 1% acetic acid was added to each well, and the plate was incubated for >30 min at room temperature. Unbound SRB was removed by five washes with tap water, followed by air-drying. […] The relative growth rate (%) was calculated for each of the compound concentrations according to the following formula: (Ti−Tz)/(C−Tz)×100 In the formula, time zero (Tz), control growth (C), and OD for different concentration of tested compounds (Ti). The GI50 for each compound was obtained from a non-linear Sigmoidal dose-response (variable slope) curve which is fitted by GraphPad Prism™ v.4.03 software. Values were calculated for each of these parameters if the level of activity was reached. However, if the effect was not reached or was exceeded, the value for that parameter was expressed as greater or less than the maximum or minimum concentration tested. Flow Cytometry

[2] = test system: MCF10A; test: SRB antiproliferative assay, MCF10A non-cancer breast cells; format: cell-based, human; settings: Homo sapiens, MCF-10A, 48 h
Method: as §1

[3] = test system: MDA-MB231; test: SRB antiproliferative assay, MDA-MB231; format: cell-based, human; settings: Homo sapiens, MDA-MB-231, 48 h
Method: as §1

[4] = test system: 184B5; test: SRB antiproliferative assay, 184B5 non-cancer breast cells; format: cell-based, human; settings: Homo sapiens, 184B5; SRB, 48 h; read-out: GI50 184B5
Method: as §1

[5] = test system: MCF10A non-cancer cells; settings: 50 μM CQ
[6] = Serum ALT liver toxicity, CD-1 mice; settings: Chloroquine (Reference)
Method: (§3) Alanine Transaminase (“ALT”, SUP6001-c)/Aspartate Transaminase (“AST”, SUP6002-c) color endpoint assay kits were purchased from ID Labs Biotechnology (London, Ontario, Canada). Elevation of ALT and AST levels in serum samples is used as an indicator of liver damage/injury.
(§4) Animals were monitored for food and water consumption every day, and their body weights and tumor volumes were measured twice per week. Tumor volumes were measured with a digital caliper and were determined by using the following formula: ½ length×width^2. Blood samples were collected via cardiac puncture and processed further for ALT and AST measurements. The animals were then immediately euthanized by carbon dioxide.
(§5) Changes in body weight and the amount and ratio of alanine transaminase (ALT)/aspartate transaminase (AST) were used to measure toxic effects.
Ratio of <2 is considered normal.

[7] = test system: MCF7; test: SRB antiproliferative assay, MCF7; format: cell-based, human; settings: Homo sapiens
Method: as §1

[8] = test system: U87MG brain cancer cells; test: Clonogenic assay, U87MG brain cancer cells; format: cell-based; settings: Temozolomide
Method: (§2) The clonogenic assay was carried out as described in Santi and Lee (2011).^11

[9] = test system: MCF7 cells; test: Clonogenic assay using MCF7 cells; format: cell-based, human
Method: as §2
Antiproliferative activity of VR-23 was evaluated on a variety of different cell lines, alone or in combination with Bortezomib, by way of SRBSRB or clonogenic assays.

[10] = test system: Jurkat lymphoma cells; test: Flow cytometry, apoptosis of Jurkat lymphoma cells; format: cell-based; settings: 6 nM Bortezomib, 48 hours
Method: Asynchronously growing Jurkat lymphoma cells were incubated for 48 hours in the absence (sham control) or presence of Bortezomib alone or in combination with VR-23.

[11] = test system: MDA-MB231 human metastatic breast cancer cells; test: Xenograft antitumor activity, ATH490 mice engrafted with MDA-MB231; format: in vivo; parameters: Tumor size D7 / Tumor size D15 / Tumor size D18 / Tumor size D22: unit not given here
Method: Five-week-old female CD-1 and ATH490 (strain code 490) athymic nude mice were purchased from Charles River (Quebec, Canada). The MDA-MB231 human metastatic breast cancer cells were obtained from the American Tissue Culture Collection (ATCC, Manassas, Va., USA). Cells were maintained under humidified condition at 37° C. and 5% CO2 in DMEM high glucose medium (ATCC) supplemented with 10% fetal bovine serum and antibiotics. All animal experiments, including animal handling, care, treatment and endpoint determination, were reviewed and approved by the Laurentian University Animal Care Committee (ACC) and carried out at Laurentian University Animal Care facility (Sudbury, Ontario, Canada)
To determine anti-tumor activity of VR-23 in an animal model, a xenograft model of human breast cancer cells in athymic nude mice was established. Exponentially growing MDA-MB231 cells were harvested and counted for inoculation into mice. Each mouse was subcutaneously injected at the flank with 10×10^6 cells in 0.2 ml ice cold 1×PBS. When tumor size reached 4-5 mm in diameter (n=4-5 per group), mice were randomly assigned into five (or more) groups.

[12] = Organ weight and histology (liver, spleen, kidney, lung) of ATH490 mice
Method: All values are presented as mean±S.E.M. Analyses were performed using GraphPad Prism software (GraphPad Software). Comparison between the groups was made by p value determination using one-way ANOVA. A p value of <0.05 was considered to be statistically significant. […] Each organ weight (%) is normalized with total body weight (BW).
The H&E stained slides were taken with a 20× objective using a Zeiss EPI-fluorescent microscope (bright field). […] At least 10 fields for each slide (one slide per mouse, and 3 mice per group) were examined.
Images were taken with a 10× objective using a Zeiss EPI-fluorescent microscope. […] Drug administration was carried out as described in Table IX and in the Materials and Methods section herein with respect to Animal Studies.
The images of the H&E stained renal tissues were taken with a Zeiss EPI-fluorescent (bright field) microscope using a 10× objective.

[13] = ATH490 mice
Method: as §3, §4, §5
Ratio of <2 is considered normal.

[14] = MCF7, SRB, 48 h, read-out: GI50 MCF7

Q: Which GI50 [1] does the source give for `CCN(CC)CCCC(C)Nc1ccnc2cc(Cl)ccc12` (stereo not shown) [Chloroquine, reference compound] here?
A: Its GI50 is 28.6 ± 1.25 µM.

Q: What about the GI50 [2] of the same compound?
A: The GI50 was 81.3 ± 1.45 µM.

Q: What about the GI50 [3] of the same compound?
A: Its GI50 is 22.5 ± 1.44 µM.

Q: And the GI50 [4]?
A: Its GI50 is 76.1 ± 1.13 µM.

Q: What about the “Apoptosis in MCF10A” value [5] of the same compound?
A: Its value is “some cells underwent apoptosis”.

Q: What about the ALT [6] of the same compound?
A: Its ALT is 6.03 ± 4.40 IU/L blood.

Q: What about the GI50 ([7]; MCF7, 48 h, read-out: GI50 MCF7) of the same compound?
A: The GI50 was 38.4 ± 1.2 µM.

Q: What about the GI50 ([7]; MCF7, read-out: GI50 value of CQ on MCF7) of the same compound?
A: The GI50 was ~38 µM.

Q: With `Cn1nnc2c(C(N)=O)ncn2c1=O` [Temozolomide] as the compound, how does the “# Colonies (Experiment #1)” value ([8]; 1 μM) read?
A: Its value is 64.

Q: And the “# Colonies (Experiment #2)” value ([8]; 1 μM)?
A: The value was 94.

Q: And the “# Colonies (Experiment #1)” value ([8]; 5 μM)?
A: Its value is 39.

Q: What about the “# Colonies (Experiment #2)” value ([8]; 5 μM) of the same compound?
A: Its value is 50.

Q: What about the “# Colonies (Experiment #1)” value ([8]; 10 μM) of the same compound?
A: The value was 4.

Q: What about the “# Colonies (Experiment #2)” value ([8]; 10 μM) of the same compound?
A: Its value is 5.

Q: And the “# Colonies (Experiment #1)” value ([8]; 20 μM)?
A: Its value is 2.

Q: What about the “# Colonies (Experiment #2)” value ([8]; 20 μM) of the same compound?
A: Its value is 1.

Q: And the “# Colonies (Experiment #1)” value ([8]; 50 μM)?
A: The value was 2.

Q: And the “# Colonies (Experiment #2)” value ([8]; 50 μM)?
A: The value was 1.

Q: For `O=S(=O)(c1ccc(Cl)cc1)N1CCN(c2ccnc3cc(Cl)ccc23)CC1` [VR-24 (39), 7-Chloro-4-(4-(4-chlorophenylsulfonyl)piperazin-1-yl)quinoline], which GI50 [1] is on record?
A: Its GI50 is 8.34 ± 0.73 µM.

Q: What about the GI50 [2] of the same compound?
A: Its GI50 is 9.7 ± 0.81 µM.

Q: What about the GI50 [3] of the same compound?
A: The GI50 was 11.8 ± 0.91 µM.

Q: What about the GI50 [4] of the same compound?
A: The GI50 was 6.36 ± 0.34 µM.

Q: What about the GI50 [7, 14] of the same compound?
A: Its GI50 is 4.31 ± 0.32 µM.

Q: Which GI50 [1] does the source give for `CN(C)c1cccc2c(S(=O)(=O)NCCCNc3ccnc4cc(Cl)ccc34)cccc12` [VR-65 (41), 5-Dimethylamino-naphthalene-1-sulfonic acid [3-(7-chloro-quinolin-4-ylamino)-propyl]-amide] here?
A: Its GI50 is 4.63 ± 0.35 µM.

Q: And the GI50 [2]?
A: Its GI50 is 2.56 ± 0.03 µM.

Q: What about the GI50 [3] of the same compound?
A: Its GI50 is 12.7 ± 1.01 µM.

Q: And the GI50 [4]?
A: The GI50 was 1.67 ± 0.08 µM.

Q: For `CC(C)C[C@H](NC(=O)[C@H](Cc1ccccc1)NC(=O)c1cnccn1)B(O)O` [Bortezomib], which Average colony number ([9]; Bortezomib at 2 nM, series with non-treated control 34) is on record?
A: Its Average colony number is 15.

Q: And the Average colony number ([9]; Bortezomib at 4 nM, series with non-treated control 34)?
A: Its Average colony number is 12.

Q: And the Average colony number ([9]; Bortezomib at 4 nM, series with non-treated control 36)?
A: The Average colony number was 11.

Q: And the Average colony number ([9]; Bortezomib at 6 nM, series with non-treated control 36)?
A: The Average colony number was 6.

Q: And the “Cell killing by apoptosis” value [10]?
A: The value was “neither 6 nM of Bortezomib (FIG. 4, ii) nor 0.75 μM of VR-23 (FIG. 4, iv) induced substantial cell killing by apoptosis”.

Q: Which results are given for `O=[N+]([O-])c1cccc(S(=O)(=O)N2CCN(c3ccnc4cc(Cl)ccc34)CC2)c1` [VR-25 (40), 7-Chloro-4-(4-(3-nitrophenylsulfonyl)piperazin-1-yl)quinoline]?
A: GI50 [1]: 9.21 ± 0.65 µM; GI50 [2]: 31.1 ± 1.01 µM; GI50 [3]: 20.4 ± 1.15 µM; GI50 [4]: 15.8 ± 0.88 µM; GI50 [7, 14]: 8.62 ± 0.38 µM

Q: For `CC(=O)O[C@H]1C(=O)[C@@]2(C)[C@H]([C@H](OC(=O)c3ccccc3)[C@]3(O)C[C@H](OC(=O)[C@H](O)[C@@H](NC(=O)c4ccccc4)c4ccccc4)C(C)=C1C3(C)C)[C@]1(OC(C)=O)CO[C@@H]1C[C@@H]2O` [Paclitaxel], which “Tumor size D7” value ([11]; day 7 post-treatment, dosing as in Table IX B) is on record?
A: Its value is 47.63 ± 8.67.

Q: What about the “Tumor size D15” value ([11]; day 15 post-treatment, dosing as in Table IX B) of the same compound?
A: The value was 23.25 ± 11.63.

Q: And the “Tumor size D18” value ([11]; day 18 post-treatment, dosing as in Table IX B)?
A: Its value is 25.20 ± 13.69.

Q: And the “Tumor size D22” value ([11]; day 22 post-treatment, dosing as in Table IX B)?
A: The value was 16.59 ± 2.66.

Q: And the “Reduction of tumor burden” value ([11]; paclitaxel 20 mg/kg/week)?
A: The value was 18.4 fold.

Q: What about the “Microscopic Changes (liver)” value ([12]; ATH490 mice, VR-23, 30 mg/week, Paclitaxel, 20 mg/week) of the same compound?
A: The value was “High rate of mitotic cells in liver”.

Q: What about the “Spleen histology (H&E)” value ([12]; VR-23 30 mg/kg, paclitaxel 20 mg/kg) of the same compound?
A: The value was “side effects including germinal center (GC) expansion”.

Q: And the “Kidney histology (H&E), nephrotoxicity” value ([12]; VR-23 30 mg/kg, paclitaxel 20 mg/kg, four weeks)?
A: The value was “high cellularity, endocapillary proliferative glomerulonephritis (enlarged glomeruli), and collapsed Bowman space”.

Q: What about the “Cases with liver cells with densely stained nucleic acids” value ([12]; paclitaxel 20 mg/kg) of the same compound?
A: The value was “approximately 15%”.

Q: What about the Weight of spleen ([12]; paclitaxel-treated, 29 days post-treatment) of the same compound?
A: The Weight of spleen was “weight of spleen was higher”.

Q: What about the ALT [13] of the same compound?
A: The ALT was 35.91 ± 4.26 U/L.

Q: What about the AST [13] of the same compound?
A: Its AST is 84.4 ± 29.21 U/L.

Q: What about the “Survival (% of the control)” value ([9]; 1 nM of Paclitaxel alone) of the same compound?
A: The value was 35.8%.

Q: And the “Survival (% of the control)” value ([9]; 1 nM of Paclitaxel alone, listed as paclitaxel)?
A: Its value is 35.8%.

Q: What about the “Survival (% of the control)” value ([9]; 2 nM of Paclitaxel alone) of the same compound?
A: The value was 9.5%.

From patent US9975852B2, “Quinoline sulfonyl derivatives and uses thereof” (Health Sciences North Research Institute, priority 2013, dated 2018)
